# Measured values from PubChem BioAssay AID328 (DTP/NCI, 2004).
# Values joined by “and” are separate entries in the source; they are usually repeats but may differ in a detail not shown here. Equal values may be shown once. Inconclusive results and toxic doses are left out.
# System: BDF1 mice, P388 leukemia ip, median survival T/C
# Assay: NCI In Vivo Anticancer Drug Screen. Data for tumor model P388 Leukemia (intraperitoneal) in B6D2F1 (BDF1) mice
# Conditions: endpoint: median survival time, higher = longer survival
# How it was run: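 In tumour-bearing mice, survival after compound treatment is set against the vehicle group and given as a quotient.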
# [1] = dose: 100.0 mg/kg/injection, schedule: Q01DX001 (ip), vehicle: saline with Tween-80
# [2] = dose: 200.0 mg/kg/injection, schedule: Q01DX001 (ip), vehicle: saline with Tween-80
# [3] = dose: 400.0 mg/kg/injection, schedule: Q01DX001 (ip), vehicle: saline with Tween-80
# [4] = dose: 100.0 mg/kg/injection, schedule: Q01DX009 (ip), vehicle: saline with Tween-80
# [5] = dose: 200.0 mg/kg/injection, schedule: Q01DX009 (ip), vehicle: saline with Tween-80
# [6] = dose: 400.0 mg/kg/injection, schedule: Q01DX009 (ip), vehicle: saline with Tween-80
# [7] = dose: 50.0 mg/kg/injection, schedule: Q01DX009 (ip), vehicle: Klucel (hydroxypropylcellulose) (HPC)
# [8] = dose: 100.0 mg/kg/injection, schedule: Q01DX009 (ip), vehicle: Klucel (hydroxypropylcellulose) (HPC)
# [9] = dose: 200.0 mg/kg/injection, schedule: Q01DX009 (ip), vehicle: Klucel (hydroxypropylcellulose) (HPC)
# [10] = dose: 400.0 mg/kg/injection, schedule: Q01DX009 (ip), vehicle: Klucel (hydroxypropylcellulose) (HPC)
# [11] = dose: 50.0 mg/kg/injection, schedule: Q01DX009 (ip), vehicle: saline with Tween-80
# [12] = dose: 100.0 mg/kg/injection, schedule: Q04DX003 (ip), vehicle: Klucel (hydroxypropylcellulose) (HPC)
# [13] = dose: 200.0 mg/kg/injection, schedule: Q04DX003 (ip), vehicle: Klucel (hydroxypropylcellulose) (HPC)
# [14] = dose: 400.0 mg/kg/injection, schedule: Q04DX003 (ip), vehicle: Klucel (hydroxypropylcellulose) (HPC)
# [15] = dose: 50.0 mg/kg/injection, schedule: Q04DX003 (ip), vehicle: Klucel (hydroxypropylcellulose) (HPC)
# [16] = dose: 100.0 mg/kg/injection, schedule: Q04DX003 (ip), vehicle: saline
# [17] = dose: 200.0 mg/kg/injection, schedule: Q04DX003 (ip), vehicle: saline
# [18] = dose: 6.25 mg/kg/injection, schedule: Q01DX009 (ip), vehicle: saline
# [19] = dose: 12.5 mg/kg/injection, schedule: Q01DX009 (ip), vehicle: saline
# [20] = dose: 25.0 mg/kg/injection, schedule: Q01DX009 (ip), vehicle: saline
compound,measurement,setting,value
NC(=O)c1c(F)c(F)c(F)c(F)c1F,T/C,[1],107 % of control
same,T/C,[2],115 % of control
same,T/C,[3],110 % of control
CN1c2ccc3ccccc3c2Sc2ccc3ccccc3c21,T/C,[4],113 % of control
same,T/C,"dose: 100.0 mg/kg/injection, schedule: Q04DX003 (ip), vehicle: saline with Tween-80",100 % of control
same,T/C,[5],104 % of control
same,T/C,"dose: 200.0 mg/kg/injection, schedule: Q04DX003 (ip), vehicle: saline with Tween-80",95 % of control
same,T/C,[6],104 % of control
same,T/C,"dose: 400.0 mg/kg/injection, schedule: Q04DX003 (ip), vehicle: saline with Tween-80",90 % of control
CCc1nc(N)nc(N)c1-c1ccc(Cl)c(Cl)c1,T/C,"dose: 6.25 mg/kg/injection, schedule: Q01DX010 (ip), vehicle: carboxymethylcellulose (CMC)",110 % of control
same,T/C,"dose: 8.0 mg/kg/injection, schedule: Q01DX009 (sc), vehicle: Klucel (hydroxypropylcellulose) (HPC)",90 % of control
same,T/C,"dose: 8.0 mg/kg/injection, schedule: Q03HX024 (ip), vehicle: Klucel (hydroxypropylcellulose) (HPC)",90 % of control
same,T/C,"dose: 12.5 mg/kg/injection, schedule: Q01DX010 (ip), vehicle: carboxymethylcellulose (CMC)",100 % of control
same,T/C,"dose: 25.0 mg/kg/injection, schedule: Q01DX010 (ip), vehicle: carboxymethylcellulose (CMC)",90 % of control
same,T/C,"dose: 32.0 mg/kg/injection, schedule: Q04DX003 (ip), vehicle: Klucel (hydroxypropylcellulose) (HPC)",163 % of control
same,T/C,"dose: 64.0 mg/kg/injection, schedule: Q08DX002 (ip), vehicle: Klucel (hydroxypropylcellulose) (HPC)",86 % of control
same,T/C,"dose: 128.0 mg/kg/injection, schedule: Q01DX001 (sc), vehicle: Klucel (hydroxypropylcellulose) (HPC)",100 % of control
same,T/C,"dose: 128.0 mg/kg/injection, schedule: Q08DX002 (ip), vehicle: Klucel (hydroxypropylcellulose) (HPC)",86 % of control
O=NN(CCCl)C(=O)Nc1c[nH]c2ccccc12,T/C,[7],92 % of control
same,T/C,[8],107 % of control
same,T/C,[9],108 % of control
same,T/C,[10],117 % of control
CC(=O)Nc1cccc([N+](=O)[O-])c1,T/C,[11],100 % of control
same,T/C,[4],100 % of control
same,T/C,[5],104 % of control
COc1ccc(NC(=O)Oc2c(C(C)C)cccc2C(C)C)cc1,T/C,[12],100 % of control
same,T/C,[13],91 % of control
same,T/C,[14],100 % of control
Cc1c(C#N)c2n(c1C)CCN2,T/C,"dose: 6.0 mg/kg/injection, schedule: Q01DX009 (ip), vehicle: Klucel (hydroxypropylcellulose) (HPC)",104 % of control
same,T/C,"dose: 12.0 mg/kg/injection, schedule: Q01DX009 (ip), vehicle: Klucel (hydroxypropylcellulose) (HPC)",86 % of control
same,T/C,"dose: 25.0 mg/kg/injection, schedule: Q01DX009 (ip), vehicle: Klucel (hydroxypropylcellulose) (HPC)",92 % of control and 100 % of control
same,T/C,"dose: 25.0 mg/kg/injection, schedule: Q04DX003 (ip), vehicle: Klucel (hydroxypropylcellulose) (HPC)",95 % of control
same,T/C,[15],100 % of control
same,T/C,[12],108 % of control
CN(C)CCCNC(CC#N)CCC#N (stereo unspecified),T/C,"dose: 50.0 mg/kg/injection, schedule: Q04DX003 (ip), vehicle: saline",100 % of control
same,T/C,[16],109 % of control
same,T/C,[17],100 % of control
CCSCCSCC,T/C,[4],107 % of control
same,T/C,[16],120 % of control
same,T/C,[5],103 % of control
same,T/C,[17],115 % of control
same,T/C,"dose: 400.0 mg/kg/injection, schedule: Q04DX003 (ip), vehicle: saline",120 % of control
Clc1ccc(NC2=NCCN=C(Nc3ccc(Cl)c(Cl)c3)SS2)cc1Cl,T/C,[7],100 % of control
same,T/C,[8],92 % of control
same,T/C,[9],88 % of control
COc1cc(C(=O)N2CC2)cc(OC)c1OC,T/C,"dose: 3.12 mg/kg/injection, schedule: Q01DX009 (ip), vehicle: water",108 % of control
same,T/C,"dose: 6.25 mg/kg/injection, schedule: Q01DX009 (ip), vehicle: water",90 % of control
same,T/C,"dose: 12.5 mg/kg/injection, schedule: Q01DX009 (ip), vehicle: water",99 % of control
same,T/C,"dose: 25.0 mg/kg/injection, schedule: Q01DX009 (ip), vehicle: water",101 % of control
same,T/C,"dose: 50.0 mg/kg/injection, schedule: Q01DX009 (ip), vehicle: water",96 % of control
O=Cc1c2ccc(Cl)cc2nc2ccc(Cl)cc12,T/C,[1],100 % of control
same,T/C,[2],100 % of control
same,T/C,[3],100 % of control
CC(C)C(=O)OCC1OC(n2cnc3c(=S)nc[nH]c32)C(OC(=O)C(C)C)C1OC(=O)C(C)C (stereo unspecified),T/C,"dose: 88.0 mg/kg/injection, schedule: Q01DX009 (ip), vehicle: saline with Tween-80",104 % of control
same,T/C,[4],118 % of control
same,T/C,"dose: 133.0 mg/kg/injection, schedule: Q01DX009 (ip), vehicle: saline with Tween-80",95 % of control
same,T/C,[5],100 % of control
same,T/C,"dose: 300.0 mg/kg/injection, schedule: Q01DX009 (ip), vehicle: saline with Tween-80",100 % of control
same,T/C,[6],100 % of control
CC(Br)C(=O)c1ccc(OCc2ccccc2)cc1 (stereo unspecified),T/C,[11],117 % of control
same,T/C,[4],119 % of control
CN(N=O)c1ccc(N(C)N=O)cc1,T/C,[7],95 % of control
same,T/C,[8],95 % of control
same,T/C,[12],95 % of control
same,T/C,[9],90 % of control
same,T/C,[13],105 % of control
same,T/C,[14],95 % of control
Nc1nc(N)c(-c2ccc(Cl)c(Cl)c2)c(COc2cccc(CNC(=O)c3cccc(S(=O)(=O)F)c3)c2)n1,T/C,"dose: 132.0 mg/kg/injection, schedule: Q04DX003 (ip), vehicle: Klucel (hydroxypropylcellulose) (HPC)",109 % of control
same,T/C,[9],150 % of control
same,T/C,[13],119 % of control
same,T/C,"dose: 300.0 mg/kg/injection, schedule: Q01DX009 (ip), vehicle: Klucel (hydroxypropylcellulose) (HPC)",155 % of control
Cc1ccccc1/C=C1\CC(C)(C)c2ccccc2C1=O,T/C,[8],100 % of control
same,T/C,[12],95 % of control
same,T/C,[9],95 % of control
same,T/C,[13],95 % of control
same,T/C,[10],104 % of control
same,T/C,[14],95 % of control
CC(=O)n1ccnc1/C=C\c1ccc([N+](=O)[O-])s1,T/C,[15],95 % of control
same,T/C,[12],110 % of control
same,T/C,[13],105 % of control
O=S1(=O)CCN(C2CCCCCCCCCCC2)CC1,T/C,[7],108 % of control
same,T/C,[8],106 % of control
same,T/C,[9],101 % of control
CC(C)(CO)COC(=O)NC1=C(N2CC2)C(=O)C(NC(=O)OCC(C)(C)CO)=C(N2CC2)C1=O,T/C,"dose: 0.75 mg/kg/injection, schedule: Q01DX009 (ip), vehicle: water",151 % of control and 157 % of control
same,T/C,"dose: 1.5 mg/kg/injection, schedule: Q01DX009 (ip), vehicle: water",159 % of control and 178 % of control
same,T/C,"dose: 3.0 mg/kg/injection, schedule: Q01DX009 (ip), vehicle: water",181 % of control and 200 % of control
same,T/C,"dose: 6.0 mg/kg/injection, schedule: Q01DX009 (ip), vehicle: water",231 % of control and 205 % of control
same,T/C,"dose: 12.0 mg/kg/injection, schedule: Q01DX009 (ip), vehicle: water",232 % of control and 312 % of control
O=c1[nH]cnc2nc(Br)[nH]c12,T/C,[11],100 % of control
same,T/C,[4],101 % of control
same,T/C,[5],93 % of control
same,T/C,[6],101 % of control
OCC1OC(OC2(CO)OC(CO)C(O)C2O)C(O)C(O)C1O (stereo unspecified),T/C,"dose: 11.0 mg/kg/injection, schedule: Q01DX009 (ip), vehicle: saline",118 % of control
same,T/C,"dose: 22.0 mg/kg/injection, schedule: Q01DX009 (ip), vehicle: saline",113 % of control and 115 % of control
same,T/C,"dose: 67.0 mg/kg/injection, schedule: Q01DX009 (ip), vehicle: saline",115 % of control and 122 % of control
same,T/C,"dose: 100.0 mg/kg/injection, schedule: Q01DX010 (ip), vehicle: saline",115 % of control
same,T/C,"dose: 200.0 mg/kg/injection, schedule: Q01DX010 (ip), vehicle: saline",103 % of control
same,T/C,"dose: 400.0 mg/kg/injection, schedule: Q01DX010 (ip), vehicle: saline",100 % of control
same,T/C,"dose: 600.0 mg/kg/injection, schedule: Q01DX010 (ip), vehicle: saline",115 % of control
Cc1cccc[n+]1CCC(N)=O,T/C,[18],92 % of control
same,T/C,[19],117 % of control
same,T/C,[20],103 % of control
O=N[O-].[Co].[N-]=C=S.[NH2-].[NH2-].[NH2-].[NH2-],T/C,[18],95 % of control
same,T/C,[19],93 % of control
same,T/C,[20],112 % of control
same,T/C,"dose: 50.0 mg/kg/injection, schedule: Q04DX003 (ip), vehicle: saline with Tween-80",120 % of control
